Laboratory results from patent US20210330611A1, “THERAPY FOR NEUROLOGICAL DISEASES/DISORDERS” (priority 2020, published 2021).

Columns and labels:
[1] = tested on: BMDMs; assay type: cell-based, mouse; settings: 24 h, FIG. 12
Experimental: FIGS. 12A-E. Effects of acivicin on microglia, macrophage and whole blood cell numbers. a, Representative images showing morphology and density of primary microglia treated with vehicle or acivicin for 48 h stained with nuclei marker Hoechst or CellMask Red Whole Cell Stain. Quantification of the total number of microglia. Data are representative of one experiment with technical replicates (open symbols). b, Representative confocal images showing morphology and density of control- and acivicin-treated BMDMs treated for 24 h. Scale bar, 100 μm. Insets depict digitally zoomed in areas of regions of interest. Quantification of the total number of BMDMs in the field of view. […] Cell viability of single CD45^+ cells was assessed by Sytox blue live/dead nuclei stain. Quantification of percent cell viability of CD45^+ BMDMs treated with acivicin or left untreated. Data are from 2 independent experiments with n=4 mice per group (mean±s.d.). d, Quantification of complete blood count analysis of white blood cells (WBCs), red blood cells (RBC), platelets (PLT) (left) and composition of WBCs (right) of blood samples from healthy mice treated with saline or acivicin for 10 days. […] Quantification of total microglia cell numbers in healthy mice treated with acivicin or saline. […]

[2] = tested on: 2D2 T cells; experiment: Antigen-specific T-cell proliferation (BrdU, 2D2 T cells with MOG35-55-pulsed BMDMs); assay type: cell-based, mouse; settings: 5, 0.5 or 0.05 μM, FIG. 14G, H
Experimental: T-cell proliferation assay. For antigen-specific T cell proliferation, näive CD4+ T cells were magnetically sorted from the TCR-transgenic 2D2 mice using naïve CD4+ T cell isolation kits (Miltenyi Biotec). […]. For non-antigen-specific T cell proliferation, naïve CD4^+ T cells were treated with acivicin and stimulated with mouse T-activator CD3/CD28 Dynabeads (Thermo Fisher Scientific) for 3 d. Cells were then fixed, permeabilized, and stained with FITC-conjugated anti-BrdU (BrdU Flow Kits, BD Biosciences).

[3] = tested on: primary rat microglia; experiment: Cell toxicity (dead cells, size <150 μm2) in coated fibrin (cFib) assay;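 for Fibrin % cell toxicity: share of dead cells sized under 150 µm2 at 10 µM in fibrin-stimulated microglia HTS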
[4] = assay type: in vivo, mouse; settings: healthy mice, 10 days, FIG. 12
Experimental: Blood sampling and hematological analysis. Hematological analysis was carried out for mice treated with saline or acivicin for 10 days. Blood samples were collected from the heart of each anesthetized mouse via cardiac puncture. The complete blood cell counts were measured with an automated blood count analyzer (Hemavet, Drew Scientific Inc).

[5] = tested on: GGT; experiment: GGT activity in substantia nigra after stereotactic LPS injection; assay type: in vivo, mouse; settings: 5 mg/kg i.p., 12 h after LPS, FIG. 15a
Experimental: Stereotactic LPS injection and drug treatment. Mice were anaesthetized with isoflurane and placed in a stereotactic apparatus (David Kopf Instruments). LPS (Sigma-Aldrich) was dissolved in endotoxin-free distilled water (HyClone) and was diluted to 1 μg/ml with PBS. LPS (2 μl of 1 μg/ml) or PBS was slowly injected (0.3 μl/min) using a 10-μl Hamilton syringe attached to a 33-G needle into the substantia nigra at coordinates (anteroposterior, 3.0 mm; mediolateral, 1.3 mm; dorsoventral, 4.7 mm from the bregma, according to Paxinos and Watson) Animals received acivicin (5 mg/kg) or saline intraperitoneally beginning 5 days before LPS injection and for 7 days after LPS injection. After 12 h of the LPS injection, the substantia nigra area was immediately collected on ice and kept at −80° C. for later analysis of GGT activity. After 7 d of the LPS injection, mice were perfused with 4% PFA, and the brains were post-fixed in 4% PFA overnight at 4° C. […] Images were acquired with all-in-one BZ-X700 fluorescence microscope. Images were quantified using NIH ImageJ (version 1.50) by blinded observers.

[6] = tested on: chronic NOD MOG35-55 EAE; experiment: Chronic MOG35-55 EAE in NOD mice, clinical scores; assay type: in vivo, mouse; settings: therapeutic, daily from day 80 to day 113, FIG. 8b
[7] = tested on: primary rat microglia; experiment: Cell toxicity (dead cells, size <150 μm2) in LPS assay; settings: primary microglia HTS, LPS stimulation; decreased size (<150 μm^2) as marker of toxicity
[8] = tested on: adoptive transfer EAE; experiment: Adoptive transfer EAE induced by PLP139-151-specific T cells, clinical scores; assay type: in vivo, mouse; settings: prophylactic, 5 mg/kg daily from day 0, FIG. 7d

SMILES: N[C@H](C(=O)O)[C@@H]1CC(Cl)=NO1 [Acivicin, (2S)-2-amino-2-[(5S)-3-chloro-4,5-dihydro-1,2-oxazol-5-yl] acetic acid]
- macrophage cell number in vitro [1]: did not affect
- encephalitogenic T cell proliferation (BrdU) with APCs [2]: suppressed
- cell toxicity in microglia dose response ([3]; <20 μM, FIG. 6a): without cell toxicity
- Fibrin % cell toxicity ([3]; primary microglia HTS, fibrin stimulation, decreased size (<150 μm^2) as marker of toxicity): 2%
- total cell blood count in vivo [4]: did not affect
- GGT activity in SN after LPS injection [5]: blocked
- progression, clinical signs [6]: suppressed progression
- LPS % cell toxicity [7]: 4%
- disease onset and severity [8]: delayed
